Series [1] deals with Streptococcus mutans (ATCC33402). Nature of the series: Microtitre plate assay, IC90 for bacterial growth. The class given is cell-based. As to conditions: for IC90: Streptococcus mutans, ATCC33402, 90% inhibitory concentration for bacterial growth, read-out: IC90 SMU 33402. How it is done:
(§1) The bacteria used in this study were grown overnight in flasks containing 100 ml Mueller-Hinton Broth (Becton Dickinson—cat. no. 275730) in sterile de-ionized water, with shaking, at 37° C. Stocks (0.5 ml/tube) were stored at 70° C. until use. Bacteria titrations were performed in microtiter plates and colony forming units (CFUs) were determined. In general, an inoculum level of approximately 100 CFUs was used for susceptibility testing.
(§2) Anti bacterial Susceptibility Testing: IC90 Determination
(§3) Flat-bottom, sterile 96-well plastic microtiter plates were filled with 180 μl of sterile deionized water, supplemented with 0.25% BSA. Subsequently, stock solutions (7.8× final test concentration) of compounds were added in 45 μl volumes in column 2. Serial five-fold dilutions (45 μl in 180 μl) were made directly in the microtiter plates from column 2 to reach column 11. Untreated control samples with (column 1) and without (column 12) inoculum were included in each microtiter plate. Depending on the bacteria type, approximately 10 to 60 CFU per well of bacteria inoculum (100 TCID50), in a volume of 100 μl in 2.8× Mueller-Hinton broth medium, was added to the rows A to H, except column 12. The same volume of broth medium without inoculum was added to column 12 in row A to H. The cultures were incubated at 37° C. for 24 hours under a normal atmosphere (incubator with open air valve and continuous ventilation). At the end of incubation, one day after inoculation, the bacterial growth was quantitated fluorometrically. Therefore resazurin (0.6 mg/ml) was added in a volume of 20 μl to all wells 3 hours after inoculation, and the plates were re-incubated overnight. A change in colour from blue to pink indicated the growth of bacteria. The fluorescence was read in a computer-controlled fluorometer (Cytofluor Biosearch) at an excitation wavelength of 530 nm and an emission wavelength of 590 nm. The % growth inhibition achieved by the compounds was calculated according to standard methods. The IC90 (expressed in μg/ml) was defined as the 90% inhibitory concentration for bacterial growth.

Series [2] has as its system Bacillus subtilis (ATCC43639). As to the kind of experiment: Microtitre plate assay, IC90 for bacterial growth. It counts as cell-based. As to conditions: for IC90 BSU 43639: 90% inhibitory concentration for bacterial growth; for IC90: Bacillus subtilis, ATCC43639, 90% inhibitory concentration for bacterial growth, read-out: IC90 BSU 43639. How it is done: as §1, §2, §3

Series [3] concerns Staphylococcus aureus (ATCC25923). Nature of the series: Microtitre plate assay, IC90 for bacterial growth. As to conditions: for IC90: Staphylococcus aureus, ATCC25923, 90% inhibitory concentration for bacterial growth, read-out: IC90 STA 25923. The class given is cell-based. As to the method: as §1, §2, §3
In series [4] the test system is Escherichia coli (ATCC35218). Nature of the series: Microtitre plate assay, IC90 for bacterial growth. The class given is cell-based. Conditions: 90% inhibitory concentration for bacterial growth. As to the method:
as §1, §2, §3

Series [5] deals with Enterococcus faecalis (ATCC29212). As to the kind of experiment: Microtitre plate assay, IC90 for bacterial growth. The class given is cell-based. As to conditions: for IC90 EFA 29212: 90% inhibitory concentration for bacterial growth; for IC90: Enterococcus faecalis, ATCC29212, 90% inhibitory concentration for bacterial growth, read-out: IC90 EFA 29212. How it is done: as §1, §2, §3

In series [6] the test system is Staphylococcus aureus (ATCC29213). Nature of the series: Microtitre plate assay, IC90 for bacterial growth. Conditions: 90% inhibitory concentration for bacterial growth, 24 hours at 37° C., resazurin; for IC90: Staphylococcus aureus, ATCC29213, 24 h, read-out: IC90 STA 29213. The class given is cell-based. As to the method:
as §1, §2, §3
(The colour change of resazurin is a common sign of viable cells or microbes.)

Series [7] deals with methicilline resistant Staphylococcus aureus (MRSA) (a clinical isolate from the University of Antwerp). Nature of the series: Microtitre plate assay, IC90 for bacterial growth. The class given is cell-based. As to conditions: 90% inhibitory concentration for bacterial growth; for IC90: Staphylococcus aureus, MRSA, read-out: IC90 STA RMETHIC. How it is done: as §1, §2, §3
Series [8] has as its system Escherichia coli (ATCC25922). As to the kind of experiment: Microtitre plate assay, IC90 for bacterial growth. It counts as cell-based. Conditions: 90% inhibitory concentration for bacterial growth, read-out: IC90 ECO 25922. How it is done: as §1, §2, §3
Series [9] has as its system Staphylococcus aureus (ATCC43300). Nature of the series: Microtitre plate assay, IC90 for bacterial growth. Conditions: 90% inhibitory concentration for bacterial growth. The class given is cell-based. How it is done: as §1, §2, §3
Series [10] concerns Listeria monocytogenes (ATCC49594). As to the kind of experiment: Microtitre plate assay, IC90 for bacterial growth. It counts as cell-based. Conditions: for IC90: Listeria monocytogenes, ATCC49594, 90% inhibitory concentration for bacterial growth, read-out: IC90 LMO 49594. How it is done:
as §1, §2, §3

In series [11] the test system is Pseudomonas aeruginosa (ATCC27853). Nature of the series: Microtitre plate assay, IC90 for bacterial growth. It counts as cell-based. As to conditions: for IC90 PAE 27853: 90% inhibitory concentration for bacterial growth; for IC90: Pseudomonas aeruginosa, ATCC27853, 90% inhibitory concentration for bacterial growth, read-out: IC90 PAE 27853. How it is done: as §1, §2, §3

Series [12] deals with Enterococcus faecalis (ATCC14506). Nature of the series: Microtitre plate assay, IC90 for bacterial growth. As to conditions: 90% inhibitory concentration for bacterial growth; for IC90: read-out: IC90 EFA 14506. The class given is cell-based. As to the method:
as §1, §2, §3

For series [13], the system named is Streptococcus pyogens (ATCC8668). As to the kind of experiment: Microtitre plate assay, IC90 for bacterial growth. It counts as cell-based. Conditions: for IC90 SPY 8668: 90% inhibitory concentration for bacterial growth; for IC90: Streptococcus, ATCC8668, 90% inhibitory concentration for bacterial growth, read-out: IC90 SPY 8668. How it is done: as §1, §2, §3

Series [14] concerns Streptococcus pneumoniae (ATCC6305). As to the kind of experiment: Microtitre plate assay, IC90 for bacterial growth. The class given is cell-based. Conditions: for IC90 SPN 6305: 90% inhibitory concentration for bacterial growth; for IC90: Streptococcus pneumoniae, ATCC6305, 90% inhibitory concentration for bacterial growth, read-out: IC90 SPN 6305. As to the method:
as §1, §2, §3

Series [15] concerns Escherichia coli (ATCC1403). Nature of the series: Microtitre plate assay, IC90 for bacterial growth. The class given is cell-based. As to the method: as §1, §2, §3
[16] abbreviates: 90% inhibitory concentration for bacterial growth.

In brackets after ≈: the same amount, converted by molar mass.

The source of these data is patent publication US8691800B2, “Quinoline derivatives as antibacterial agents” (Janssen Pharmaceutica N.V., priority 2005, dated 2014).

By IC90 is commonly meant the concentration at which the effect reaches the 90% level. For orientation: melting point means the temperature of the solid-liquid transition.

In turn, `COc1nc2ccc(Cl)cc2cc1C(c1ccccc1)C1(c2cccc3ccccc23)CC[N+](C)(C)CO1.[I-]` (single isomer, unassigned) [Compound 15] gave a melting point of 211 °C. Moreover, the “IC90 SMU 33402” value in series [1] (setting [16]) was determined as 1.9 µg/mL. The “IC90 BSU 43639” value in series [2] is 2.1 µg/mL. Moreover, the “IC90 STA 25923” value in series [3] (setting [16]) worked out at 2.1 µg/mL. Further, the “IC90 ECO 35218” value in series [4] stood at 41.6 µg/mL. In series [5], the “IC90 EFA 29212” value was 2.1 µg/mL. In addition, the “IC90 STA 29213” value in series [6] amounted to 1.86 µg/mL. In [7], the “IC90 STA RMETHIC” value is 1.9 µg/mL. In series [8], the IC90 came out at 10.5 µg/mL. In series [9], the “IC90 STA 43300” value was 9.3 µg/mL. The “IC90 LMO 49594” value in series [10] (setting [16]) was 2.1 µg/mL. The “IC90 PAE 27853” value in [11] amounted to 9.3 µg/mL. Besides, the “IC90 EFA 14506” value in series [12] is 2.1 µg/mL. Moreover, in [13], the “IC90 SPY 8668” value turned out to be 1.9 µg/mL. Also, the “IC90 SPN 6305” value in [14] was found to be 2.3 µg/mL. Also, in series [15] (setting [16]), the “IC90 ECO 1403” value came out at 10.5 µg/mL.

`COc1nc2ccc(Cl)cc2cc1C(c1ccccc1)C1(c2cccc3ccccc23)CCN(C)CO1` (single isomer, unassigned) [Compound 14] came in with a melting point of 189 °C. Also, the IC90 in series [2] was 12.8 µg/mL (≈ 25.1 µM). Further, in [3], the IC90 is 12.8 µg/mL (≈ 25.1 µM). The IC90 in series [5] was determined as 12.8 µg/mL (≈ 25.1 µM). Also, the IC90 in series [6] is 12.8 µg/mL (≈ 25.1 µM). In addition, in series [7], the IC90 turned out to be 12.8 µg/mL (≈ 25.1 µM). For the same molecule, the IC90 in [10] came to 12.8 µg/mL (≈ 25.1 µM). The IC90 in [11] was 12.8 µg/mL (≈ 25.1 µM). The IC90 in [12] is 12.8 µg/mL (≈ 25.1 µM). In addition, in series [13], the IC90 is 12.8 µg/mL (≈ 25.1 µM). In series [14], the IC90 worked out at 12.8 µg/mL (≈ 25.1 µM).

`COc1nc2ccc(Br)cc2cc1C(c1ccccc1)C1(c2cccc3ccccc23)CCN(C)CO1` (single isomer, unassigned) [Compound 1] registered a melting point of 112 °C. Also, the 90% effect concentration (IC90) in series [1] turned out to be 44 µg/mL (≈ 79.5 µM). Also, in [2], the IC90 turned out to be 44 µg/mL (≈ 79.5 µM). In series [3], the IC90 was 55.4 µg/mL (≈ 100 µM). Moreover, the “IC90 EFA 29212” value in [5] is 55.4 µg/mL (≈ 100 µM). Further, the “IC90 STA 29213” value in series [6] amounted to 55.4 µg/mL (≈ 100 µM). Moreover, the IC90 in series [7] worked out at 55.4 µg/mL (≈ 100 µM). Moreover, the IC90 in series [10] came out at 44 µg/mL (≈ 79.5 µM). The “IC90 PAE 27853” value in [11] came to 44.0 µg/mL (≈ 79.5 µM). Further, in [13], the “IC90 SPY 8668” value is 44.0 µg/mL (≈ 79.5 µM). Also, in series [14], the “IC90 SPN 6305” value came to 5.5 µg/mL (≈ 9.94 µM).

`COc1nc2ccc(Cl)cc2cc1C(c1ccccc1)C1(c2cccc3ccccc23)CC[N+](C)(C)CO1.[I-]` (single isomer, unassigned) [Compound 16] registered a melting point of 195 °C. The IC90 in series [1] amounted to 2.1 µg/mL. Moreover, in series [2], the “IC90 BSU 43639” value stood at 10.5 µg/mL. For the same molecule, the IC90 in series [3] was 1.9 µg/mL. Also, the IC90 in series [4] (read-out: IC90 ECO 35218) stood at 41.6 µg/mL. Besides, the IC90 in [5] was 2.6 µg/mL. For the same molecule, the IC90 in series [6] was determined as 1.9 µg/mL. Also, the IC90 in series [7] was 2.1 µg/mL. Besides, the “IC90 STA 43300” value in [9] was found to be 41.6 µg/mL. In series [10], the IC90 turned out to be 1.7 µg/mL. The IC90 in series [11] was 10.5 µg/mL. Further, the IC90 in [12] worked out at 2.1 µg/mL. Also, the IC90 in series [13] amounted to 1.9 µg/mL. In series [14], the “IC90 SPN 6305” value turned out to be 5.2 µg/mL. Also, in series [15] (Escherichia coli, ATCC1403, 90% inhibitory concentration for bacterial growth, read-out: IC90 ECO 1403), the IC90 is 13.2 µg/mL.

On to `COc1nc2ccc(Br)cc2cc1C(c1ccccc1)C1(C2=CC=CCC2)CCN(C)CO1` (single isomer, unassigned) [Compound 8], for which the melting point was 168 °C. Moreover, the IC90 in [2] came to 12.7 µg/mL (≈ 25.1 µM). Also, in series [3], the IC90 was 12.7 µg/mL (≈ 25.1 µM). The IC90 in series [5] came to 12.7 µg/mL (≈ 25.1 µM). Also, in series [6], the IC90 was found to be 12.7 µg/mL (≈ 25.1 µM). For the same molecule, the IC90 in series [7] was determined as 12.7 µg/mL (≈ 25.1 µM). Besides, in series [10], the IC90 amounted to 12.7 µg/mL (≈ 25.1 µM). In addition, the IC90 in [11] worked out at 10 µg/mL (≈ 19.8 µM). Moreover, the IC90 in [12] was found to be 40 µg/mL (≈ 79.1 µM). Further, in series [13], the IC90 amounted to 12.7 µg/mL (≈ 25.1 µM). The IC90 in [14] amounted to 12.7 µg/mL (≈ 25.1 µM).
